“And” between values parts separate entries of the source, which are not always exact repeats. Equal values may be shown once. “Also recorded” adds a separate entry of the source. Read-outs that look alike come from different tables or passages of the source. Marks after values point to notes of the source that are not given here.
How the values were obtained:
[1] = Part 1: tolerability of Compound A in healthy subjects (sessions 1-7); type: in vivo, human; conditions: single doses up to 600 mg, multiple doses 150 mg for two days then 100 mg once a day for 10 days
[2] = Adverse events over 28-day treatment in treatment naïve chronic hepatitis B patients; type: in vivo, human; conditions: for Amylase Increased (most common AEs) / At least one AE (on-treatment, 28 days) / Headache (most common AEs) / Worst Grade 1 AEs / Worst Grade 2 AEs / Worst Grade 3 AEs: n = 8
From the text: In part 2 of this study (FIG. 1, sessions 8-9), the objective was to evaluate the safety, PK, and antiviral activity of Compound A in treatment naïve, chronic hepatitis B patients over a 28-day treatment period. The patient criteria were: • HBeAg-positive or negative • Plasma HBV DNA>2.0 log 10 IU/mL • ALT/AST<2.5×ULN • METAVIR stage<F3. […] Although no patients had Grade 3 or 4 AEs on treatment, one patient had Grade 1 & 2 ALT and Grade 1 AST elevations on treatment that rose to Grade 3 & 4 ALT and Grade 3 AST elevations in follow up.

[3] = tested on: HBV RNA; assay: HBV RNA in treatment naïve chronic hepatitis B patients; type: in vivo, hepatitis B virus; conditions: N 8
Method: In part 2 of this study (FIG. 1, sessions 8-9), the objective was to evaluate the safety, PK, and antiviral activity of Compound A in treatment naïve, chronic hepatitis B patients over a 28-day treatment period. The patient criteria were: • HBeAg-positive or negative • Plasma HBV DNA>2.0 log 10 IU/mL • ALT/AST<2.5×ULN • METAVIR stage<F3. 1.1 Patient Baseline Characteristics HBV DNA was assessed for each patient weekly during this study (see FIG. 3). A mean reduction in plasma HBV DNA levels of 2.16 (±0.49 SD) log10 IU/mL (25 mg Compound A) and 2.89 (±0.48 SD) log10 IU/mL (75 mg Compound A) from baseline was observed after 28 days. Three patients dosed with 75 mg QD achieved HBV DNA below the level of quantification of the HBV DNA assay while none in the 25 mg Compound A group achieved this. A more pronounced and consistent decline in HBV DNA was observed across patients in the 75 mg group compared with the 25 mg group.

[4] = Oral bioavailability of Compound A 25-mg and 100-mg oral tablets, fasted and fed, in healthy adult subjects; type: in vivo, human; conditions: for Tmax: read-out: tmax (median)
Method: The primary objectives were to evaluate the oral bioavailability of Compound A when administered as single dose of 150 mg, composed of 6×25-mg oral tablets, under fasted and fed conditions, and as single dose of 300 mg, composed of 3×100-mg oral tablets, under fasted conditions in healthy adult subjects Part I was conducted to assess the bioavailability of new 25 mg oral tablets of Compound A under fasted and fed conditions, and of new 100 mg oral tablets of Compound A under fasted conditions, in healthy adult subjects. In Treatment Period 1 of Part I, all 16 subjects received a single 150 mg dose (6×25 mg oral tablets) under fed conditions (Treatment A). Thereafter, subjects were randomly assigned to either Arm 1 or Arm 2 in a 1:1 ratio. In Arm 1, subjects received a single 150 mg dose (6×25 mg oral tablets) under fasted conditions in Treatment Period 2 (Treatment B). In Arm 2, subjects received a single 300 mg dose (3×100 mg oral tablets) under fasted conditions in Treatment Period 2 (Treatment C). Full pharmacokinetic (PK) profiles of Compound A were determined over approximately 768 hours […] after Compound A administration on Day 1 of each treatment period. Safety and tolerability were assessed throughout the study. In Part I, 16 healthy adult subjects were included. After Treatment A (150 mg Compound A, fed) in Treatment Period 1, subjects were randomly assigned to either Arm 1 (n=8; Treatment B [150 mg Compound A, fasted]) or Arm 2 (Treatment C [[…]; 300 mg Compound A, fasted]) in a 1:1 ratio in Treatment Period 2. Fifteen subjects completed study participation in Part I, but all 16 subjects were included in the PK and safety analyses. […] Subjects had to be healthy on the basis of medical and surgical history, physical examination, 12 lead electrocardiogram (ECG), vital signs, and clinical laboratory tests performed at screening. Male and female subjects had to adhere to the contraceptive requirements as specified in the protocol. The study consisted of a screening phase, an admission phase, a treatment phase, and a follow-up phase (posttreatment phase). During the follow-up phase, subjects returned to the study site 10-14 days and 30-35 days after study drug administration in the last treatment period for a follow-up visit. The duration of each treatment phase was 33±3 days and the study duration per individual subject was at least 61 days (including admission and follow-up period), screening period not included.

[5] = 150 mg, 6 × 25 mg, Fasting, Treatment B
[6] = 150 mg, 6 × 25 mg, Fasting, Treatment B (Reference)
[7] = 150 mg, 6 × 25 mg, Fed, Treatment A
[8] = 300 mg, 3 × 100 mg, Fasting, Treatment C
[9] = 300 mg, 3 × 100 mg, Fasting, Treatment C (Test)
[10] = Treatment A (fed) vs Treatment B (fasted), 150 mg
[11] = Treatment C (3 × 100 mg) vs Treatment B (6 × 25 mg), fasting

In the case of `C[C@H](NS(=O)(=O)c1cc(C(=O)Nc2ccc(F)c(C#N)c2)n(C)c1)C(F)(F)F` [Compound A], the tolerability [1] is reported as “well tolerated”, the “Amylase Increased (most common AEs)” value ([2]; 25 mg (100 mg Day 1)) is reported as 2 (25)** n (%) and the “At least one AE (on-treatment, 28 days)” value ([2]; 25 mg (100 mg Day 1)) is reported as 5 n (%) and 5 (63) n (%). The “Headache (most common AEs)” value ([2]; 25 mg (100 mg Day 1)) was 2 (25) n (%), the “Worst Grade 1 AEs” value ([2]; 25 mg (100 mg Day 1)) was 3 (38) n (%) and the “Worst Grade 2 AEs” value ([2]; 25 mg (100 mg Day 1)) was 1 (13) n (%). For the same compound, the “Worst Grade 3 AEs” value ([2]; 25 mg (100 mg Day 1)) was 1 (13) n (%), the “ECG changes and vital sign abnormalities” value ([2]; 25 mg and 75 mg, 28 days) was “no patients showed clinically significant ECG changes or persistent/worsening vital sign abnormalities” and the “serious AEs, discontinuations, dose-limiting toxicities” value ([2]; 25 mg and 75 mg, 28 days) was “no serious adverse events (SAES) or adverse events (AEs) of clinical concern and no treatment discontinuations; also recorded: no serious AEs, no discontinuations due to AEs, and no dose-limiting toxicities”. For the same compound, the “treatment-emergent Grade 3 or 4 laboratory abnormalities” value ([2]; 25 mg and 75 mg, 28 days) was “No treatment-emergent Grade 3 or 4 laboratory abnormalities were reported, with the exception of the Grade 3 amylase increase”, the “Amylase Increased (most common AEs)” value ([2]; 75 mg) was 0 n (%) and the “At least one AE (on-treatment, 28 days)” value ([2]; 75 mg) was 4 n (%) and 4 (50) n (%). For the same compound, the “Headache (most common AEs)” value ([2]; 75 mg) was 0 n (%), the “Worst Grade 1 AEs” value ([2]; 75 mg) was 2 (25) n (%) and the “Worst Grade 2 AEs” value ([2]; 75 mg) was 1 (13) n (%). For the same compound, the “Worst Grade 3 AEs” value ([2]; 75 mg) was 0 (0)* n (%), the “patients who experienced at least one AE during treatment” value ([2]; both Compound A arms pooled (9/16)) was 56% and the “HBV RNA Day 29 Mean Change from Baseline” value ([3]; 25 mg QD) was −2.30 log10 cp/mL. For the same compound, the “HBV RNA Day 29 Not detected (number of patients)” value ([3]; 25 mg QD) was 3, the “HBV RNA Day 29 Mean Change from Baseline” value ([3]; 75 mg QD) was −1.85 log10 cp/mL and the “HBV RNA Day 29 Not detected (number of patients)” value ([3]; 75 mg QD) was 6. For the same compound, the “AUClast, dose normalized to 25 mg (mean)” value [4, 5] was 29467 ng·h/mL, the “AUC∞, dose normalized to 25 mg (mean)” value [4, 5] was 30318 ng·h/mL and the “Cmax, dose normalized to 25 mg (mean)” value [4, 5] was 320 ng/mL. For the same compound, the “AUClast, dose normalized (to 25 mg), Geometric Mean” value [4, 6] was 27226 ng·h/mL, the “AUC∞, dose normalized (to 25 mg), Geometric Mean” value [4, 6] was 28011 ng·h/mL and the “Cmax, dose normalized (to 25 mg), Geometric Mean” value [4, 6] was 294 ng/mL. For the same compound, the “AUClast, dose normalized to 25 mg (mean)” value [4, 7] was 28502 ng·h/mL, the “AUC∞, dose normalized to 25 mg (mean)” value [4, 7] was 29580 ng·h/mL and the “Cmax, dose normalized to 25 mg (mean)” value [4, 7] was 257 ng/mL. For the same compound, the “AUClast, dose normalized to 25 mg (mean)” value [4, 8] was 30951 ng·h/mL, the “AUC∞, dose normalized to 25 mg (mean)” value [4, 8] was 32747 ng·h/mL and the “Cmax, dose normalized to 25 mg (mean)” value [4, 8] was 231 ng/mL. For the same compound, the “AUClast, dose normalized (to 25 mg), Geometric Mean” value [4, 9] was 30835 ng·h/mL, the “AUC∞, dose normalized (to 25 mg), Geometric Mean” value [4, 9] was 32329 ng·h/mL and the “Cmax, dose normalized (to 25 mg), Geometric Mean” value [4, 9] was 231 ng/mL. For the same compound, the “AUClast Geometric Mean Ratio” value [4, 10] was 101.05%, the “AUC∞ Geometric Mean Ratio” value [4, 10] was 101.91% and the “Cmax Geometric Mean Ratio” value [4, 10] was 85.8% and 85.84%. For the same compound, the “Cmax lower under fed conditions” value [4, 10] was 14.2%, the “Mean (range) t½term” value ([4]; Treatment A, 150 mg fed) was 134.3 (65.7-221.6) hours and the “Mean (range) t½term” value ([4]; Treatment B, 150 mg fasted) was 123.9 (72.3-195.7) hours. The “AUClast, dose normalized, Geometric Mean Ratio” value [4, 11] was 113.26%, the “AUC∞, dose normalized, Geometric Mean Ratio” value [4, 11] was 115.42% and the “Cmax, dose normalized, Geometric Mean Ratio” value [4, 11] was 78.4% and 78.44%. For the same compound, the “dose normalized Cmax lower for the 100 mg tablet strength compared to the 25 mg tablet strength” value ([4]; Treatment C vs Treatment B, fasted) was 21.6%, the “Mean (range) t½term” value ([4]; Treatment C, 300 mg fasted) was 161.1 (111.5-257.3) hours and the AUC(0-t) ([4]; both sexes, human, in vivo, oral, 150 mg, 6 × 25 mg, Fasting, Treatment B (Reference), read-out: AUClast, Geometric Mean) was 163 µg·h/mL. The AUC(0-inf) ([4]; both sexes, human, in vivo, oral, 150 mg, 6 × 25 mg, Fasting, Treatment B (Reference), read-out: AUC∞, Geometric Mean) was 168 µg·h/mL, the Cmax ([4]; both sexes, human, in vivo, oral, 150 mg, 6 × 25 mg, Fasting, Treatment B (Reference), read-out: Cmax, Geometric Mean) was 1770 ng/mL and the AUC(0-t) ([4]; both sexes, human, in vivo, oral, 150 mg, 6 × 25 mg, Fasting, Treatment B, read-out: AUClast (mean)) was 177 µg·h/mL. For the same compound, the AUC(0-inf) ([4]; both sexes, human, in vivo, oral, 150 mg, 6 × 25 mg, Fasting, Treatment B, read-out: AUC∞ (mean)) was 182 µg·h/mL, the Cmax ([4]; both sexes, human, in vivo, oral, 150 mg, 6 × 25 mg, Fasting, Treatment B, read-out: Cmax (mean)) was 1920 ng/mL and the Tmax ([4]; both sexes, human, in vivo, oral, 150 mg, 6 × 25 mg, Fasting, Treatment B) was 1.75 h. It also gave a Cmax ([4]; both sexes, human, in vivo, oral, 150 mg, 6 × 25 mg, Fed (Standard Breakfast), Treatment A, read-out: Cmax (mean)) of 1540 ng/mL, an AUC(0-t) ([4]; both sexes, human, in vivo, oral, 150 mg, 6 × 25 mg, Fed, Treatment A (Test), read-out: AUClast, Geometric Mean) of 165 µg·h/mL and an AUC(0-inf) ([4]; both sexes, human, in vivo, oral, 150 mg, 6 × 25 mg, Fed, Treatment A (Test), read-out: AUC∞, Geometric Mean) of 171 µg·h/mL. It also gave a Cmax ([4]; both sexes, human, in vivo, oral, 150 mg, 6 × 25 mg, Fed, Treatment A (Test), read-out: Cmax, Geometric Mean) of 1520 ng/mL, an AUC(0-t) ([4]; both sexes, human, in vivo, oral, 150 mg, 6 × 25 mg, Fed, Treatment A, read-out: AUClast (mean)) of 171 µg·h/mL and an AUC(0-inf) ([4]; both sexes, human, in vivo, oral, 150 mg, 6 × 25 mg, Fed, Treatment A, read-out: AUC∞ (mean)) of 177 µg·h/mL. It also gave a Tmax ([4]; both sexes, human, in vivo, oral, 150 mg, 6 × 25 mg, Fed, Treatment A) of 4 h, an AUC(0-t) ([4]; both sexes, human, in vivo, oral, 300 mg, 3 × 100 mg, Fasting, Treatment C, read-out: AUClast (mean)) of 371 µg·h/mL and an AUC(0-inf) ([4]; both sexes, human, in vivo, oral, 300 mg, 3 × 100 mg, Fasting, Treatment C, read-out: AUC∞ (mean)) of 393 µg·h/mL. For the same compound, the Cmax ([4]; both sexes, human, in vivo, oral, 300 mg, 3 × 100 mg, Fasting, Treatment C, read-out: Cmax (mean)) was 2770 ng/mL, the Tmax ([4]; both sexes, human, in vivo, oral, 300 mg, 3 × 100 mg, Fasting, Treatment C) was 3 h and the clearance ([4]; both sexes, human, in vivo, oral, over all treatments and individuals, read-out: Clearance (CUF)) was 7.83 to 25.8 mL/min.

Source: patent US10973801B2, “Capsid assembly modulator dosing regimen” (Janssen Sciences Ireland Unlimited Company, priority 2018, dated 2021)
